{"source": "patent US6809091B1", "about": "“Substances capable of inducing apoptosis” (Takara Bio Inc., priority 1998, dated 2004)", "key": {"[1]": {"test_system": "human promyelocytic leukemia HL-60", "test": "MTT method: cell growth suppressing / apoptosis-inducing activity", "assay_type": "cell-based", "details": "for apoptosis-inducing activity / cancer cell growth suppressing activity: HL-60, MTT method of Example 1, 48 hours; for apoptosis-inducing activity of the non-heated solution: HL-60, 48 hours, MTT method", "protocol": "Heated and non-heated substances of each of them were sterilized by a membrane filter of 0.22 μm to prepare samples for the apoptosis-inducing activity. Those samples were diluted with aseptic distilled water to an extent of 2-, 4-, 8-, 16- and 32-fold, their activity for suppressing the cell growth to the human promyelocytic leukemia HL-60 was measured as follows and their intensity or the apoptosis-inducing activity was compared.\nThus, 10 μl of each of the diluted solutions or 10 μl of aseptic distilled water were placed in a well of a 96-well microtiter plate. Then 90 μl of an RPMI 1640 medium (manufactured by Nissui) containing 10% of fetal bovine serum (manufactured by Gibco) which contained 5000 HL-60 cells (ATCC CCL240) were added thereto and an incubation was carried out at 37° C. for 48 hours in the presence of 5% carbon dioxide gas. After observing the shape of the cells under an optical microscope, 10 μl of a phosphate-buffered aqueous saline solution containing 5 mg/ml of 3-(4,5-dimethylthiazol-2-yl)-2,5-diphenyltetrazolium bromide (MTT; manufactured by Sigma), an incubation was continued for four hours more and state of growth of cells and formation of formazan produced in the cells were observed under a microscope. Further, 100 μl of 2-propanol containing 0.04N HCl were added thereto followed by well stirring and the absorbance at 590 nm was measured and used as a degree of growth of cells (an MTT method).\nThe solvent of the fraction was appropriately evaporated to substitute with a 50% aqueous solution of ethanol and the activity for suppressing the growth of cancer cells was measured by an MTT method mentioned in Example 1 except that the sample was diluted to a two-fold series using a 50% aqueous solution of ethanol and 2 μl of each of the diluted solutions or 2 μl of a 50% aqueous solution of ethanol were placed in a well of a flat-bottom 96-well microplate. Time for incubation was 16 hours."}, "HL-60 cells [2]": {"test_system": "HL-60 cells", "test": "measurement of apoptosis cells using FACScan", "assay_type": "cell-based, human", "details": "HL-60, 24 hours and 48 hours", "protocol": "(2) HL-60 cells which were incubated on an RPMI 1640 medium containing 10% of fetal bovine serum processed at 56° C. for 30 minutes were suspended in an RPMI 1640 medium to make 2.5×10^5 cells/5 ml. […]"}, "HL-60 cells [3]": {"test_system": "HL-60 cells", "test": "Trypan Blue staining, survival rate", "assay_type": "cell-based", "details": "Homo sapiens, HL-60, 24 hours, concentration where survival rate becomes 50%, read-out: Survival Rate50", "protocol": "(3) The cells which were incubated for 24 hours by the same manner as in Example 9-(2) were stained with 0.4% Trypan Blue and observed under an optical microscope, numbers of viable cells which were not stained and of dead cells which were stained in blue were measured, concentration (survival rate50) of each of the samples where survival rate becomes 50% was determined and the result is given in Table 1."}, "HL-60 cells [4]": {"test_system": "HL-60 cells", "test": "observation of apoptosis under an optical microscope", "assay_type": "cell-based, human", "details": "HL-60, 24 hours", "protocol": "(1) HL-60 cells (ATCC CCL-240) incubated at 37° C. in an RPMI 1640 medium (manufactured by BioWhittaker) containing 10% of fetal bovine serum (manufactured by JRH) treated at 56° C. for 30 minutes were suspended in an RPMI 1640 medium to make the concentration 2.5×10^5 cells/5 ml.\nTo 5 ml of this suspension were added 10 μl of 12.5 mM, 25 mM, 50 mM or 100 mM of a 70% ethanolic solution of 4,5-dihydroxy-2-pentenal prepared in Example 6-(1), 0.05 mM, 0.5 mM, 5 mM or 50 mM of a 70% ethanolic solution of 4-hydroxy-2-cyclopenten-1-[…] prepared in Example 6-(1), 5 mM, 10 mM or 20 mM of a 70% ethanolic solution of 4-(9-adeninyl)-2-cyclopenten-1-one prepared in Example 4-(4), 2.5 mM, 5 mM, 15 mM or 25 mM of a 70% ethanolic solution of 4-(9-guaninyl)-2-cyclopenten-1-one prepared in Example 4-(5), 75 mM, 150 mM or 300 mM of a 70% ethanolic solution of 1,5-epoxy-1-hydroxy-3-penten-2-one prepared in Example 5-(2) or 5 mM, 25 mM or 50 mM of a 70% ethanolic solution of 2-(trans-3,4-dihydroxy-1-butenyl)-4-(trans-2-formylvinyl)-1,3-dioxolane prepared in Example 6-(2) followed by incubating at 37° C. in the presence of 5% carbon dioxide gas for 24 hours.\nIncidentally, such phenomena were not noted in the incubated cells to which […] of 70% ethanolic solution were added used as a control."}, "HL-60 cells [5]": {"test_system": "HL-60 cells", "test": "analysis of fragmentation of DNA", "assay_type": "cell-based, human", "protocol": "(2) HL-60 cells which were incubated on an RPMI 1640 medium containing 10% of fetal bovine serum processed at 56° C. for 30 minutes were suspended in an RPMI 1640 medium to make 2.5×10^5 cells/5 ml.\nTo 5 ml the suspension were added 10 μl of 12.5 mM, 25 mM, 50 mM or 100 mM of a 70% ethanolic solution of 4,5-dihydroxy-2-pentenal, 0.05 mM, 0.5 mM, 5 mM or 50 mM of a 70% ethanolic solution of 4-hydroxy-2-cyclopenten-1-one, 5 mM, 10 mM or 20 mM of a 70% ethanolic solution of 4-(9-adeninyl)-2-cyclopenten-1-one prepared in Example 4-(4), 2.5 mM, 5 mM, 15 mM or 25 mM of a 70% ethanolic solution of 4-(9-guaninyl)-2-cyclopenten-1-one prepared in Example 4-(5) 75 mM, 150 mM or 300 mM of a 70% ethanolic solution of 1,5-epoxy-1-hydroxy-3-penten-2-one prepared in Example 5-(2) or 5 mM, 25 mM or 50 mM of a 70% ethanolic solution of 2-(trans-3,4-dihydroxy-1-butenyl)-4-(trans-2-formylvinyl)-1,3-dioxolane prepared in Example 6-(2) followed by incubating at 37° C. in the presence of 5% of carbon dioxide gas for 24 hours and 48 hours and the resulting cells were subjected to a measurement of apoptosis cells using FACScan by a method mentioned in pages 129-130 of “Experimental Protocol Series—Apoptosis Experiment Protocol” which was an extra issue of “Saibo Kogaku (Cell Technology)” (published by Shujunsha in 1994) and also to a measurement of analysis of fragmentation of DNA by a method mentioned in page 61-63 of “Biomanual UP Series—New Experimental Methods for Apoptosis” (published by Yodosha in 1995)."}}}
{"smiles": "NC(CCC(=O)NC(CSC1CC(=O)CC1O)C(=O)NCC(=O)O)C(=O)O", "note": "(single isomer, unassigned) [peak 1]", "values": [{"measurement": "apoptosis-inducing activity / cancer cell growth suppressing activity", "setting": "[1]", "value": "noted"}]}
{"smiles": "NC(CCC(=O)NC(CSC1CC(=O)CC1O)C(=O)NCC(=O)O)C(=O)O", "note": "(single isomer, unassigned) [peak 3]", "values": [{"measurement": "apoptosis-inducing activity / cancer cell growth suppressing activity", "setting": "[1]", "value": "noted"}]}
{"smiles": "O=C1C=CCOC1O", "note": "(centres unmarked) [1,5-epoxy-1-hydroxy-3-penten-2-one]", "values": [{"measurement": "final concentration at which apoptosis cells were confirmed", "setting": "HL-60 cells [2]", "value": "≥ 600", "unit": "µM"}, {"measurement": "IC50", "setting": "HL-60 cells [3]", "value": 438, "unit": "µM"}, {"measurement": "final concentration at which aggregation of nuclei, reduction in size of the cells and formation of apoptic body were confirmed", "setting": "HL-60 cells [4]", "value": "≥ 625", "unit": "µM"}]}
{"smiles": "O=CC[C@H](O)[C@H](O)CO", "note": "[2-deoxy-D-ribose]", "values": [{"measurement": "apoptosis-inducing activity of the non-heated solution", "setting": "[1]", "value": "no apoptosis-inducing activity"}]}
{"smiles": "O=C1C=CC(O)C1O", "note": "(centres unmarked) [4,5-dihydroxy-2-cyclopenten-1-one]", "values": [{"measurement": "cancer cell growth suppressing activity and apoptic body formation", "setting": "[1]; HL-60, MTT method of Example 4-(2), sample in 50% ethanol, 16 hours", "value": "confirmed"}]}
{"smiles": "Nc1ncnc2c1ncn2C1C=CC(=O)C1", "note": "(centres unmarked) [4-(9-adeninyl)-2-cyclopenten-1-one]", "values": [{"measurement": "IC50", "setting": "HL-60 cells [3]", "value": 22.4, "unit": "µM"}, {"measurement": "fragmentation of DNA", "setting": "HL-60 cells [5]; HL-60, 10 μM final concentration", "value": "confirmed"}, {"measurement": "fragmentation of DNA", "setting": "HL-60 cells [5]; HL-60, 30 μM final concentration", "value": "confirmed"}]}
{"smiles": "O=C[C@H](O)[C@@H](O)[C@H](O)CO", "note": "[D(+)-xylose]", "values": [{"measurement": "apoptosis-inducing activity of the non-heated solution", "setting": "[1]", "value": "no apoptosis-inducing activity"}]}
{"smiles": "O=C[C@@H](O)[C@H](O)[C@H](O)CO", "note": "[D-(−)-arabinose]", "values": [{"measurement": "apoptosis-inducing activity of the non-heated solution", "setting": "[1]", "value": "no apoptosis-inducing activity"}]}
{"smiles": "O=C[C@H](O)[C@@H](O)[C@@H](O)CO", "note": "[L(+)-arabinose]", "values": [{"measurement": "apoptosis-inducing activity of the non-heated solution", "setting": "[1]", "value": "no apoptosis-inducing activity"}]}
{"smiles": "O=C[C@H](O)[C@H](O)[C@H](O)CO", "note": "[non-heated aqueous solution of D-ribose, D-ribose]", "values": [{"measurement": "apoptosis-inducing activity of the non-heated solution", "setting": "[1]", "value": "no apoptosis-inducing activity"}]}
